In this assay the target is T1, FL hMALT1 enzyme (Homo sapiens, UniProt Q9UDY8).
T1 sequence (Q9UDY8 1-824): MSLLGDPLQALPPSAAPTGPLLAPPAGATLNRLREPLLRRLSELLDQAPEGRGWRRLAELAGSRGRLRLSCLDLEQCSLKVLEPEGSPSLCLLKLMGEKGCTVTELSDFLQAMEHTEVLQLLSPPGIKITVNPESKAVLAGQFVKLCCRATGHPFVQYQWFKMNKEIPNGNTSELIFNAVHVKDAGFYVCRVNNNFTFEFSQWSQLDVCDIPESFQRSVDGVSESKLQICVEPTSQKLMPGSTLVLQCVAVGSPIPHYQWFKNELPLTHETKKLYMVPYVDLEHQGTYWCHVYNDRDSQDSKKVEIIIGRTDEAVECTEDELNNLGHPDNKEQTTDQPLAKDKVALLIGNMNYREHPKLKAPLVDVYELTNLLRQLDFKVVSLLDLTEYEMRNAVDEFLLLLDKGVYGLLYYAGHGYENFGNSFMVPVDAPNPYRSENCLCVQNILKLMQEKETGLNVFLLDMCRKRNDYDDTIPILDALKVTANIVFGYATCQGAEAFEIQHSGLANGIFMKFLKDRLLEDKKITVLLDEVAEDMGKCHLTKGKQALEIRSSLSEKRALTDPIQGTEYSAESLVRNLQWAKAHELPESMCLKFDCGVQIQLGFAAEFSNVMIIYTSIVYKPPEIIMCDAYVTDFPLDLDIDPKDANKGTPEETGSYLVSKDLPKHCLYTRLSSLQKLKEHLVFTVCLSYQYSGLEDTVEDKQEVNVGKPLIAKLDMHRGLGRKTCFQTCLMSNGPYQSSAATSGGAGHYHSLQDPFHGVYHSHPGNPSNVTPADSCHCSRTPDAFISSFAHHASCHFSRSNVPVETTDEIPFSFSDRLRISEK
Briefly: biochemical.

The structures appear in SMILES notation.
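Also: Cell-free protease assay: enzyme preincubated with compound 30 min at room temperature, then cleavage of fluorogenic Ac-LVSR-AMC substrate (100 µM) tracked by fluorescence (ex 360/em 460 nm).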

The IC50 is the point on the concentration scale where inhibition reaches its midpoint. Read a high IC50 as weaker potency. `CNC(=O)C12CC(C(=O)N(C)[C@@H](c3ccc(N[C@@H]4Cc5ccccc5C4(C)C)cn3)C(F)(F)F)(C1)C2` [Example 203, N^1—((S)-1-(5-(((R)-1,1-Dimethyl-2,3-dihydro-1H-inden-2-yl)amino)pyridin-2-yl)-2,2,2-trifluoroethyl)-N^1,N^3-dimethylbicyclo[1.1.1]pentane-1,3-dicarboxamide] gave an IC50 of 120 nM.
Next, `CN(C(=O)C1(NS(C)(=O)=O)CC1)[C@@H](c1ccc(NC2Cc3ccc(Cl)c(F)c3C2)cn1)C(F)(F)F` (stereo partly drawn) [Example 290, N-((1S)-1-(5-((5-Chloro-4-fluoro-2,3-dihydro-1H-inden-2-yl)amino)pyridin-2-yl)-2,2,2-trifluoroethyl)-N-methyl-1-(methylsulfonamido)-cyclopropane-1-carboxamide]: 120 nM; `CN(C(=O)CN1CC(=O)NC1=O)[C@@H](c1ccc(NC2Cc3ccccc3C2(C)C)cn1)C(F)(F)F` (single isomer, unassigned) [Example 213]: 500 nM.
The same measure for `CN(C(=O)C1CCS(=O)(=O)CC1)[C@@H](c1ccc(NC2Cc3cccc(C(F)(F)F)c3C2)cn1)C(F)(F)F` (single isomer, unassigned) [Example 190]: 3300 nM; for `CN(C(=O)C1CCS(=O)(=O)CC1)[C@@H](c1ccc(NC2Cc3ccc(Cl)cc3C2)nc1)C(F)(F)F` (single isomer, unassigned) [Example 288]: 1640 nM; for `CN(C(=O)C1CCS(=O)(=O)CC1)[C@@H](c1ccc(NC2Cc3ccc(Cl)c(C4CC4)c3C2)cn1)C(F)(F)F` (single isomer, unassigned) [Example 305]: 300 nM.
Next, `CNC(=O)C1(C(=O)N(C)[C@@H](c2ccc(NC3Cc4ccc(Cl)c(F)c4C3)cn2)C(F)(F)F)CC1` (stereo partly drawn) [Example 368, N-((1S)-1-(5-((5-Chloro-4-fluoro-2,3-dihydro-1H-inden-2-yl)amino)pyridin-2-yl)-2,2,2-trifluoroethyl)-N,N′-dimethylcyclopropane-1,1-dicarboxamide]: 270 nM; `CN(C(=O)C1CCS(=O)(=O)CC1)[C@@H](c1ccc(N[C@@H]2Cc3ccc(Cl)cc3C2)cn1)C(F)(F)F` (single isomer, unassigned) [Example 200]: 1100 nM; `CN(C(=O)C1CCNCC1)[C@@H](c1ccc(NC2Cc3ccccc3C2(C)C)cn1)C(F)(F)F` (single isomer, unassigned) [Example 147]: 260 nM.
`CN(C(=O)C1CN(C(=O)C2CCO2)C1)[C@@H](c1ccc(NC2Cc3ccc(Cl)c(F)c3C2)cn1)C(F)(F)F` (single isomer, unassigned) [Example 387]: the IC50 was determined as 310 nM.
The same measure for `CN(C(=O)CN1CCNC1=O)[C@@H](c1ccc(NC2Cc3ccccc3C2(C)C)cn1)C(F)(F)F` (single isomer, unassigned) [Example 246]: 330 nM.
Next, `CN(C(=O)C1CNC(=O)CO1)[C@@H](c1ccc(NC2Cc3ccccc3C2(C)C)cn1)C(F)(F)F` (single isomer, unassigned) [Example 135]: 450 nM; `CN(C(=O)CNS(C)(=O)=O)[C@@H](c1ccc(NC2Cc3ccc(Cl)c(Cl)c3C2)cn1)C(F)(F)F` (single isomer, unassigned) [Example 381]: 77 nM; `CN(C(=O)C1CCS(=O)(=O)CC1)[C@@H](c1ccc(NC2Cc3ccc(Br)cc3C2)cn1)C(F)(F)F` (single isomer, unassigned) [Example 285]: 690 nM.
The same measure for `CC(C)c1c(Cl)ccc2c1CC(Nc1ccc([C@H](N(C)C(=O)C3CCS(=O)(=O)CC3)C(F)(F)F)nc1)C2` (stereo partly drawn) [Example 369, N-((1S)-1-(5-((5-Chloro-4-isopropyl-2,3-dihydro-1H-inden-2-yl)amino)pyridin-2-yl)-2,2,2-trifluoroethyl)-N-methyltetrahydro-2H-thiopyran-4-carboxamide 1,1-dioxide]: 72 nM; for `CN(C(=O)C1CN(C(=O)CO)C1)[C@@H](c1ccc(NC2Cc3ccc(Cl)c(Cl)c3C2)cn1)C(F)(F)F` (single isomer, unassigned) [Example 379]: 46 nM.
For the molecule `CNC(=O)N1CCC12CC(C(=O)N(C)[C@@H](c1ccc(NC3Cc4ccccc4C3(C)C)cn1)C(F)(F)F)C2` (single isomer, unassigned) [Example 238], the IC50 stood at 470 nM.
The same measure for `CN(C(=O)C1CCS(=O)(=O)CC1)[C@@H](c1ccc(NC2Cc3cccc(Cl)c3C2)cn1)C(F)(F)F` (single isomer, unassigned) [Example 264]: 1200 nM; for `COc1cccc2c1CC(Nc1ccc([C@H](N(C)C(=O)C3CCS(=O)(=O)CC3)C(F)(F)F)nc1)C2` (single isomer, unassigned) [Example 177]: 6600 nM; for `CN(C(=O)C1C2CS(=O)(=O)CC21)[C@@H](c1ccc(NC2Cc3ccccc3C2(C)C)cn1)C(F)(F)F` (single isomer, unassigned) [Example 214]: 320 nM.
As to `Cc1nnc(N2CC(C(=O)N(C)[C@@H](c3ccc(NC4Cc5ccc(Cl)c(F)c5C4)cn3)C(F)(F)F)C2)o1` (single isomer, unassigned) [Example 364], it took 120 nM to reach half-maximal inhibition (IC50).
`CN(C(=O)C1CNC(=O)O1)[C@@H](c1ccc(N[C@H]2Cc3ccc(Cl)cc3C2)cn1)C(F)(F)F` (stereo partly drawn) [Example 303, N—((S)-1-(5-(((S)-5-Chloro-2,3-dihydro-1H-inden-2-yl)amino)pyridin-2-yl)-2,2,2-trifluoroethyl)-N-methyl-2-oxooxazolidine-5-carboxamide] yielded an IC50 of 190 nM.
With `CN(C(=O)C1CCS(=O)(=O)CC1)[C@@H](c1ccc(NC2Cc3cccc(F)c3C2)cn1)C(F)(F)F` (single isomer, unassigned) [Example 275], half-maximal inhibition (IC50) was put at 520 nM.
Next, `CN(C(=O)[C@H]1CNC(=O)C1)[C@@H](c1ccc(NC2Cc3ccc(Cl)c(F)c3C2)nc1)C(F)(F)F` (single isomer, unassigned) [Example 338]: 960 nM; `COCc1c(Cl)ccc2c1CC(Nc1ccc([C@H](N(C)C(=O)C3CCS(=O)(=O)CC3)C(F)(F)F)nc1)C2` (stereo partly drawn) [Example 356, N-((1S)-1-(5-((5-Chloro-4-(methoxymethyl)-2,3-dihydro-1H-inden-2-yl)amino)pyridin-2-yl)-2,2,2-trifluoroethyl)-N-methyltetrahydro-2H-thiopyran-4-carboxamide 1,1-dioxide]: 210 nM.
`CN(C(=O)[C@H]1C[C@H](O)C1)[C@@H](c1ccc(NC2Cc3ccc(Cl)c(F)c3C2)cn1)C(F)(F)F` (single isomer, unassigned) [Example 375] had a 50% inhibitory concentration (IC50) of 1320 nM.
Next, `CN(C(=O)[C@H]1C[C@@]2(COC(=O)N2)C1)[C@@H](c1ccc(NC2Cc3ccccc3C2(C)C)cn1)C(F)(F)F` (single isomer, unassigned) [Example 207]: 120 nM; `CN(C(=O)C1CC2(CNC2)C1)[C@@H](c1ccc(N[C@H]2Cc3ccccc3C2(C)C)cn1)C(F)(F)F` [Example 173, N—((S)-1-(5-(((S)-1,1-Dimethyl-2,3-dihydro-1H-inden-2-yl)amino)pyridin-2-yl)-2,2,2-trifluoroethyl)-N-methyl-2-azaspiro[3.3]heptane-6-carboxamide]: 130 nM.
Regarding `CCc1cccc2c1CC(Nc1ccc([C@H](N(C)C(=O)C3CCS(=O)(=O)CC3)C(F)(F)F)nc1)C2` (single isomer, unassigned) [Example 197], half-maximal inhibition (IC50) required 2600 nM.
Next, `CN(C(=O)C1CCS(=O)(=O)CC1)[C@@H](c1ccc(NC2Cc3cc(F)c(F)c(F)c3C2)cn1)C(F)(F)F` (single isomer, unassigned) [Example 295]: 1900 nM; `CN(C(=O)[C@H]1CCC(=O)NC1)[C@@H](c1ccc(NC2Cc3ccc(Cl)c(C4CC4)c3C2)cn1)C(F)(F)F` (single isomer, unassigned) [Example 329]: 680 nM; `CN(C(=O)C1CN(C(=O)C2CCO2)C1)[C@@H](c1ccc(NC2Cc3ccc(Cl)c(F)c3C2)cn1)C(F)(F)F` (single isomer, unassigned) [Example 385]: 130 nM.
The same measure for `CN(C(=O)[C@@H]1CNC(=O)C1)[C@@H](c1ccc(N[C@H]2Cc3ccc(Cl)c(F)c3C2)cn1)C(F)(F)F` (single isomer, unassigned) [Example 316]: 1100 nM; for `CN(C(=O)[C@H]1CCC(=O)NC1)[C@@H](c1ccc(NC2Cc3ccc(Cl)c(F)c3C2)nc1)C(F)(F)F` (single isomer, unassigned) [Example 388]: 490 nM; for `CN(C(=O)[C@H]1C[C@]2(CCN2C)C1)[C@@H](c1ccc(NC2Cc3ccccc3C2(C)C)cn1)C(F)(F)F` (single isomer, unassigned) [Example 158]: 440 nM.
The same measure for `CN(C(=O)C1CC2(CCN2)C1)[C@@H](c1ccc(NC2Cc3ccccc3C2(C)C)cn1)C(F)(F)F` (single isomer, unassigned) [Example 154]: 150 nM.

Values taken from patent US20260184687A1, “DIHYDROINDENE DERIVATIVES AS MALT1 INHIBITORS” (C4X Discovery Limited, priority 2022, published 2026).
